Drawing on US8586550B2, “Thiazole derivatives as SGLT2 inhibitors and pharmaceutical composition comprising same” (Green Cross Corporation, priority 2010, dated 2013), this text covers IC50 for 25 compounds.

pIC50: −log10 of the molar value.

The target of the assay is T1, Human SGLT2 (hSGLT2) (Homo sapiens, UniProt P31639).
T1 construct: expressed in transfected cells
T1 sequence (P31639 1-672): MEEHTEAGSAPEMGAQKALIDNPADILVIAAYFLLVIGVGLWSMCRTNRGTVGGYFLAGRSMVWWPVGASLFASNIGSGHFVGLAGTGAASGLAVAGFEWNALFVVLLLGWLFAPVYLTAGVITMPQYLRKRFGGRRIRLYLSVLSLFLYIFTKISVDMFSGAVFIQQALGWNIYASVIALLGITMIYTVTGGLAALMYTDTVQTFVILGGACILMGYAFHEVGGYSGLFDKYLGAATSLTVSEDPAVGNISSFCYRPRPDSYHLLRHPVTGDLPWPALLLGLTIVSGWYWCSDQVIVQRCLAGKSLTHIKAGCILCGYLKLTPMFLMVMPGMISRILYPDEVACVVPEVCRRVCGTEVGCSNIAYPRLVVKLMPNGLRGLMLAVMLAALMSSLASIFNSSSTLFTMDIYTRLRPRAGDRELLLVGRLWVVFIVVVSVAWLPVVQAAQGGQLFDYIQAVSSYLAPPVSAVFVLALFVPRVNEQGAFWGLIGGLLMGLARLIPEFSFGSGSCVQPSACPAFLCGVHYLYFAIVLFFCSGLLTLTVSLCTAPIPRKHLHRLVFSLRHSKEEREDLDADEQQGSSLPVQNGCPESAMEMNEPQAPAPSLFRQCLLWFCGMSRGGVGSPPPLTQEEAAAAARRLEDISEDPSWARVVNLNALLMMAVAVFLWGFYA
As to the kind of experiment: Sodium-dependent glucose transport (14C-AMG uptake) assay in CHO cells stably expressing hSGLT2. Type of assay: cell-based. The conditions noted are these: CHO cells expressing hSGLT2, 14C-AMG uptake, 37° C. for 2 h; single determinations; read-out: hSGLT2 Inhibitory Activity IC50. The gist of the method:
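Uptake of 14C-α-methyl-D-glucopyranoside (8 μM labeled, 1 mM unlabeled, NaCl buffer pH 7.4) measured over 2 h at 37 °C with inhibitor in hSGLT2-transfected CHO cells after 10 min choline-buffer pretreatment. Radioactivity by liquid scintillation; IC50 from nonlinear regression.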
As for `OC[C@H]1O[C@@H](c2ccc(Cl)c(Cc3ncc(-c4ccc(Cl)s4)s3)c2)[C@H](O)[C@@H](O)[C@@H]1O` [Example 8, (2S,3R,4R,5S,6R)-2-(4-Chloro-3-((5-(5-chlorothiophen-2-yl)thiazol-2-yl)methyl)phenyl)-6-(hydroxymethyl)tetrahydro-2H-pyran-3,4,5-triol], the pIC50 is 7.88.

For the compound `COc1c(Cc2ncc(-c3ccco3)s2)cc([C@@H]2O[C@H](CO)[C@@H](O)[C@H](O)[C@H]2O)c2ccccc12` [Example 95, (2S,3R,4R,5S,6R)-2-(3-((5-(Furan-2-yl)thiazol-2-yl)methyl)-4-methoxynaphthalen-1-yl)-6-(hydroxymethyl)-tetrahydro-2H-pyran-3,4,5-triol], the pIC50 was 8.53.

Consider `CCCc1cnc(Cc2cn([C@@H]3O[C@H](CO)[C@@H](O)[C@H](O)[C@H]3O)c3ccccc23)s1` [Example 134, (2R,3S,4S,5R,6R)-2-(Hydroxymethyl)-6-(3((5-propylthiazol-2-yl)methyl)-1H-indol-1-yl)tetrahydro-2H-pyran-3,4,5-triol], for which the pIC50 was 6.97.

For `C=CCOc1cc(Cl)c(Cc2ncc(-c3ccoc3)s2)cc1[C@@H]1O[C@H](CO)[C@@H](O)[C@H](O)[C@H]1O` [Example 84, (2S,3R,4R,5S,6R)-2-(2-(Allyloxy)-4-chloro-5-((5-(furan-3-yl)thiazol-2-yl)methyl)phenyl)-6-(hydroxymethyl)tetrahydro-2H-pyran-3,4,5-triol], the negative logarithm of the IC50 (pIC50) was 8.81.

As for `CCCSc1cnc(Cc2cc([C@@H]3O[C@H](CO)[C@@H](O)[C@H](O)[C@H]3O)ccc2Cl)s1` [Example 25, (2S,3R,4R,5S,6R)-2-(4-Chloro-3-((5-(propylthio)thiazol-2-yl)methyl)phenyl)-6-(hydroxymethyl)-tetrahydro-2H-pyran-3,4,5-triol], the pIC50 was 7.25.

On to `CCCc1cnc(Cc2cc([C@@H]3O[C@H](CO)C(O)[C@H](O)[C@H]3O)c3ccccc3c2OC)s1` (stereo in doubt) [Example 99, (2R,3R,4R,5R,6S)-2-(Hydroxymethyl)-6-(4-methoxy-3-((5-propylthiazol-2-yl)methyl)naphthalen-1-yl)-tetrahydro-2H-pyran-3,4,5-triol], for which the pIC50 is 7.72.

With `CCOc1cc(Cl)c(Cc2ncc(-c3ccc(F)cc3)s2)cc1[C@@H]1O[C@H](CO)[C@@H](O)[C@H](O)[C@H]1O` [Example 82, (2S,3R,4R,5S,6R)-2-(4-Chloro-2-ethoxy-5-((5-(4-fluorophenyl)thiazol-2-yl)methyl)phenyl)-6-(hydroxymethyl)tetrahydro-2H-pyran-3,4,5-triol], the pIC50 was 8.12.

Regarding `OC[C@H]1O[C@@H](c2cc(Cc3ncc(-c4ccco4)s3)c(Cl)cc2Cl)[C@H](O)[C@@H](O)[C@@H]1O` [Example 59, (2S,3R,4R,5S,6R)-2-(2,4-Dichloro-5-((5-(furan-2-yl)thiazol-2-yl)methyl)phenyl)-6-(hydroxymethyl)tetrahydro-2H-pyran-3,4,5-triol], the pIC50 is 8.27.

Turning to `OC[C@H]1O[C@@H](c2cc(Cc3ncc(C4CCCC4)s3)c(Cl)cc2Cl)[C@H](O)[C@@H](O)[C@@H]1O` [Example 68, (2S,3R,4R,5S,6R)-2-(2,4-Dichloro-5-((5-cyclopentylthiazol-2-yl)methyl)phenyl)-6-(hydroxymethyl)tetrahydro-2H-pyran-3,4,5-triol], the negative-log IC50 (pIC50) is 7.48.

Regarding `CCOc1cc(Cl)c(Cc2ncc(-c3ccoc3)s2)cc1[C@@H]1O[C@H](CO)[C@@H](O)[C@H](O)[C@H]1O` [Example 78, (2S,3R,4R,5S,6R)-2-(4-Chloro-2-ethoxy-5-((5-(furan-3-yl)thiazol-2-yl)methyl)phenyl)-6-(hydroxymethyl)-tetrahydro-2H-pyran-3,4,5-triol], the pIC50 was 8.36.

Take `CCOc1cnc(Cc2cc([C@@H]3O[C@H](CO)[C@@H](O)[C@H](O)[C@H]3O)c3ccccc3c2O)s1` [Example 128, (2S,3R,4R,5S,6R)-2-(3-((5-Ethoxythiazol-2-yl)methyl)-4-hydroxynaphthalen-1-yl)-6-(hydroxymethyl)-tetrahydro-2H-pyran-3,4,5-triol]: the negative-log IC50 (pIC50) was 6.94.

Regarding `OC[C@H]1O[C@@H](c2cc(Cc3ncc(-c4ccco4)s3)c(Cl)cc2F)[C@H](O)[C@@H](O)[C@@H]1O` [Example 53, (2S,3R,4R,5S,6R)-2-(4-Chloro-2-fluoro-5-((5-(furan-2-yl)thiazol-2-yl)methyl)phenyl)-6-(hydroxymethyl)tetrahydro-2H-pyran-3,4,5-triol], the pIC50 was 8.46.

As for `OC[C@H]1O[C@@H](c2ccc(Cl)c(Cc3cnc(-c4ccc(F)cc4)s3)c2)[C@H](O)[C@@H](O)[C@@H]1O` [Example 194, (2S,3R,4R,5S,6R)-2-(4-Chloro-3-((2-(4-fluorophenyl)thiazol-5-yl)methyl)phenyl)-6-(hydroxymethyl)tetrahydro-2H-pyran-3,4,5-triol], the pIC50 was 8.19.

As to “(2S,3R,4R,5S,6R)-2-(4-Chloro-2-ethoxy-5-((5-(thiophen-3-yl)thiazol-2-yl)methyl)phenyl)-6-(hydroxymethyl)tetrahydro-2H-pyran-3,4,5-triol [Example 80]”, the pIC50 is 8.93.

Consider `OC[C@H]1O[C@@H](c2ccc(Cl)c(Cc3ncc(-c4ccsc4)s3)c2)[C@H](O)[C@@H](O)[C@@H]1O` [Example 1, (2S,3R,4R,5S,6R)-2-(4-Chloro-3-((5-(thiophen-3-yl)thiazol-2-yl)methyl)phenyl)-6-(hydroxymethyl)-tetrahydro-2H-pyran-3,4,5-triol], for which the pIC50 was 8.70.

For `OC[C@H]1O[C@@H](c2ccc(F)c(Cc3ncc(-c4ccccc4)s3)c2)[C@H](O)[C@@H](O)[C@@H]1O` [Example 44, (2S,3R,4R,5S,6R)-2-(4-Fluoro-3-((5-phenylthiazol-2-yl)methyl)phenyl)-6-(hydroxymethyl)tetralrydro-2H-pyran-3,4,5-triol], the negative logarithm of the IC50 (pIC50) is 7.51.

For `OC[C@H]1O[C@@H](c2ccc(Cl)c(Cc3cnc(-c4cnccn4)s3)c2)[C@H](O)[C@@H](O)[C@@H]1O` [Example 195], the negative-log IC50 (pIC50) was 8.36.

Consider `CCCCCc1cnc(Cc2cn([C@@H]3O[C@H](CO)[C@@H](O)[C@H](O)[C@H]3O)c3ccccc23)s1` [Example 136, (2R,3S,4S,5R,6R)-2-(Hydroxymethyl)-6-(3-((5-pentylthiazol-2-yl)methyl)-1H-indol-1-yl)tetrahydro-2H-pyran-3,4,5-triol], for which the pIC50 is 6.68.

As to `CCCCc1cnc(Cc2cc([C@@H]3O[C@H](CO)[C@@H](O)[C@H](O)[C@H]3O)ccc2Cl)s1` [Example 13, (2S,3R,4R,5S,6R)-2-(3-((5-Butylthiazol-2-yl)methyl)-4-chlorophenyl)-6-(hydroxymethyl)-tetrahydro-2H-pyran-3,4,5-triol], the pIC50 is 6.92.

As to `COc1c(Cc2ncc(-c3ccccc3)s2)cc([C@@H]2O[C@H](CO)[C@@H](O)[C@H](O)[C@H]2O)c2ccccc12` [Example 97, (2R,3S,4R,5R,6S)-2-(Hydroxymethyl)-6-(4-methoxy-3-((5-phenylthiazol-2-yl)methyl)naphthalen-1-yl)-tetrahydro-2H-pyran-3,4,5-triol], the pIC50 was 8.17.

For `C/C=C(\C)c1cnc(Cc2cc([C@@H]3O[C@H](CO)[C@@H](O)[C@H](O)[C@H]3O)ccc2Cl)s1` [Example 18, (2S,3R,4R,5S,6R,E)-2-(3-((5-(but-2-en-2-yl)thiazol-2-yl)methyl)-4-chlorophenyl)-6-(hydroxymethyl)-tetrahydro-2H-pyran-3,4,5-triol], the pIC50 is 8.33.

Turning to `CCCCCc1cnc(Cc2cc([C@@H]3O[C@H](CO)[C@@H](O)[C@H](O)[C@H]3O)ccc2Cl)s1` [Example 14, (2S,3R,4R,5S,6R)-2-(4-Chloro-3-((5-pentylthiazol-2-yl)methyl)phenyl)-6-(hydroxymethyl)-tetrahydro-2H-pyran-3,4,5-triol], the pIC50 was 7.88.

As for `CCOC(=O)OC[C@H]1O[C@@H](c2ccc(Cl)c(Cc3ncc(-c4ccco4)s3)c2)[C@H](O)[C@@H](O)[C@@H]1O` [Example 160, ((2R,3S,4R,5R,6S)-6-(4-Chloro-3-((5-(furan-2-yl)thiazol-2-yl)methyl)phenyl)-3,4,5-trihydroxytetrahydro-2H-pyran-2-yl)methyl ethyl carbonate], the pIC50 is 7.62.

As for `OC[C@H]1O[C@]2(OCc3cc(Cl)c(C4(c5ncc(-c6cccs6)s5)CC4)cc32)[C@H](O)[C@@H](O)[C@@H]1O` [Example 129, (1S,3′R,4′S,5′S,6′R)-5-Chloro-6′-(hydroxymethyl)-6-(1-(5-(thiophen-2-yl)thiazole-2-yl)cyclopropyl)-3′,4′,5′,6′-tetrahydro-3H-spiro[isobenzofuran-1,2′-pyran]-3′,4′,5′-triol], the pIC50 was 6.80.

With `CCCCCCc1cnc(Cc2cc([C@@H]3O[C@H](CO)[C@@H](O)[C@H](O)[C@H]3O)c(OC)cc2Cl)s1` [Example 75, (2S,3R,4R,5S,6R)-2-(4-Chloro-5-((5-hexylthiazol-2-yl)methyl)-2-methoxyphenyl)-6-(hydroxymethyl)tetrahydro-2H-pyran-3,4,5-triol], the pIC50 is 8.35.
